Results as given in patent publication US20260374782A1, “NEW COMPOUNDS, PROCESSES FOR PREPARING THE SAME AND THEIR USE AS DRUGS” (B&A ONCOMEDICAL, priority 2022, published 2026).

Biological target: T1, NKCC1 (Homo sapiens, UniProt P55011)
T1 construct: endogenous in cells; host or cells: native HEK293 cells
T1 sequence (P55011 1-1212): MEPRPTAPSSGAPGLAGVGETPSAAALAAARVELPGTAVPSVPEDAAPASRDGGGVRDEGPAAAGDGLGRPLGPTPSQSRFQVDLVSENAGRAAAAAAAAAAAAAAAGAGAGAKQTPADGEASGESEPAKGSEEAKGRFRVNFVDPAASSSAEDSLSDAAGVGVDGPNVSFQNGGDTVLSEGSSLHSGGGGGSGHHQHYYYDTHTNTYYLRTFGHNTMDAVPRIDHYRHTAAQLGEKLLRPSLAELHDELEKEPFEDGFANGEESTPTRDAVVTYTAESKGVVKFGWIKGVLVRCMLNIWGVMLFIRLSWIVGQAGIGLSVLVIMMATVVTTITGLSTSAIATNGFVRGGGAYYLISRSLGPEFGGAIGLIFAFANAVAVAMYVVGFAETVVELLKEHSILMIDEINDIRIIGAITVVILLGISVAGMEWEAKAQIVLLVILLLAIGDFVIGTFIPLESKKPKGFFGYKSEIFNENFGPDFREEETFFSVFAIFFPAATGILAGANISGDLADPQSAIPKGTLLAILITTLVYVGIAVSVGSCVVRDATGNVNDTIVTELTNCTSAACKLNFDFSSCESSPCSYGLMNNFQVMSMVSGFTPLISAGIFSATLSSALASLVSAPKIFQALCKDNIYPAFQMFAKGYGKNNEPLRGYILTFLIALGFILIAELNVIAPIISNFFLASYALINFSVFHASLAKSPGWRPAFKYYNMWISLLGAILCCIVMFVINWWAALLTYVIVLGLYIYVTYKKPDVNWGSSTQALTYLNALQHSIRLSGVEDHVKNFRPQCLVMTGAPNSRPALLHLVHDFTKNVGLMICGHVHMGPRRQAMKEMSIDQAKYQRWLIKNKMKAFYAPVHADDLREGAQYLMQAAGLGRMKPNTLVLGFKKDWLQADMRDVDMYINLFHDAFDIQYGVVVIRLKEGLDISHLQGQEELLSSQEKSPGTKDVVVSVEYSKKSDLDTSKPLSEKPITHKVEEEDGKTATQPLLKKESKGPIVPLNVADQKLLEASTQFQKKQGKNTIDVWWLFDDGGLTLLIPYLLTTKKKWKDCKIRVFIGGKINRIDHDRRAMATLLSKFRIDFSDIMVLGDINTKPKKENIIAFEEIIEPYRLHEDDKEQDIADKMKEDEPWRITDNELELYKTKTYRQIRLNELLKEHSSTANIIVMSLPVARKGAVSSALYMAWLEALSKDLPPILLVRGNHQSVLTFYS
Test: NKCC1-mediated K+ influx (83Rb tracer uptake) in native HEK293 cells, hypertonic saline, 100 μM ouabain
Assay type: cell-based
Conditions: HEK293, no drug = 1000, 20 μM bumetanide = 0; for inhibition at 20 µM: read-out: NKCC1 mediated flux inhibition at 20 μM (%); for inhibition at 2 µM: read-out: NKCC1 mediated flux inhibition at 2 μM (%)
From the text: The compounds of the invention have been tested for evaluating their potency in inhibiting the NKCC1 channel. The test used is a cellular assay expressing the NKCC1 channel: HEK293 cells are human cells derived from embryonic kidney. The inhibitory activity of the compounds has been evaluated in measuring the modification of the potassium flux at 2 concentrations, as described hereafter in the biological protocol.
HEK293 cells are human cells derived from embryonic kidney. They express at their plasma membranes proteins that transport potassium (K^+). Among these proteins is the Na—K-2Cl cotransporter or NKCC1. This transporter contributes to 40-50% of K^+ influx into the cells. The remaining of K^+ transport is mediated by the Na^+/K^+-ATPase (also known as Na^+ pump or Na^+/K^+ pump), which also contributes some 40-50% of the influx basal flux of 5-10%, which is mainly due to K^+ channels (FIG. 1A). Thus, the HEK293 cell in culture is an ideal model to study the function of NKCC1 and test compounds that inhibits its transport.
The assay to measure NKCC1 function was optimized to obtain the next signal to noise ratio: • a. A slightly hypertonic saline was used to stimulate NKCC1 function. […] By consistent use of this simple manipulation, the NKCC1 signal was enhanced. • b. Ouabain, an inhibitor of the Na^+/K^+ pump, was used at 100 μM. […] A radioactive isotope was used to trace the inward movement of K^+ into the cell (influx). This allowed for highly precise measurements of K^+ influx. Because radioactive isotopes of K^+ had very short half-lives, radioactive isotopes of Rb^+ were used. Rubidium was a monovalent cation which was readily transporter at the K^+ binding site by many transporters and channels. Rb^+ was a congener of K^+, being transported undistinguishably from K^+. ^83Rb (half-life of 83 days) was used since ^86Rb (half-life of 19.6 days) is no longer commercially available. The ^83Rb isotope was used as a tracer, i.e. at a very low amounts to trace the movement of K^+.
K^+ influx measured in native HEK293 was in the range of 7000-9000 pmoles K^+ per mg protein per min. In the presence of 20 μM Ref 1, the flux was reduced to 600-900 pmoles K^+ per mg protein per min. Thus, there was a very solid dynamic range. In each experiment, the flux without Ref 1 was set at 1000 (equivalent to 100.0%) and the flux with 20 μM bumetanide was set at 0 (equivalent to 0%).
For the flux experiments, 35-mm culture dishes were coated with 0.1 mg/mL poly-L-lysine and placed in large 20×20 [square] dishes. For convenience, the poly-L-lysine was placed in the dishes the day before the experiment. Before plating the cells, the poly-L-lysine was aspirated, and each dish washed twice with 1 mL sterile water. Cells from 3 confluent 10-cm dishes were detached with trypsin and resuspended into 49 mL complete medium. Cells (2 mL/35-mm dish) were plated in 24 dishes and allowed to attach for at least 2 hours prior to the flux. This setup allowed the measurement of 8 conditions in triplicates. For the flux, culture medium was aspirated and replaced with 1 mL saline for a preincubation period of 15 min. The saline was aspirated and replaced with 1 mL identical saline containing 0.25 μCi/mL 83Rb for 15 min. Following the uptake period, the radioactive solution was aspirated, and the cells washed 3 times with ice-cold saline. Cells were then lyzed with 500 μl 0.25N NaOH for 1 hour, neutralized with 250 μL glacial acetic acid and 300 μL and 30 μL aliquots were used for μ-scintillation counting and protein assays, respectively. Two 5 μL of each flux solution was used to determine cpm and relate those cpm to nmoles K^+. Potassium influx was expressed in nmoles K^+ per mg protein per min. Note that within an experiment, groups of 3 dishes were separated 2 min apart for easy handling. Also note that since all dishes were plated with a homogeneous cell suspension, and all dishes were identical, the protein content was measured from a subset of dishes. […]

| Compound | inhibition at 20 µM [%] | inhibition at 2 µM [%] |
| --- | --- | --- |
| CCCCNc1cc(C(=O)OC)cc(S(=N)(=O)Nc2ccccc2Cl)c1Oc1ccccc1 (stereo not shown) [Compound 26, methyl 3-(butylamino)-5-[(2-chloroanilino)sulfonimidoyl]-4-phenoxy-benzoate] | 10 to 30 | – |
| CCCCNc1cc(C(=O)OC)cc(S(=N)(=O)Nc2ccc(Cl)cc2)c1Oc1ccccc1 (stereo not shown) [Compound 27, methyl 3-(butylamino)-5-[(4-chloroanilino)sulfonimidoyl]-4-phenoxy-benzoate] | 10 to 30 | – |
| CCCCNc1cc(C(=O)OC)cc(S(=N)(=O)Nc2cccc(OC(F)F)c2)c1Oc1ccccc1 (stereo not shown) [Compound 28, methyl 3-(butylamino)-5-[[3-(difluoromethoxy)anilino]sulfonimidoyl]-4-phenoxy-benzoate] | 30 to 50 | – |
| CCCCNc1cc(C(=O)OC)cc(S(=N)(=O)NC2CCOCC2)c1Oc1ccccc1 (stereo not shown) [Compound 29, methyl 3-(butylamino)-4-phenoxy-5-[(tetrahydropyran-4-ylamino)sulfonimidoyl]benzoate] | 10 to 30 | – |
| CCCCNc1cc(C(=O)OC)cc(S(=N)(=O)NC2CCN(C)CC2)c1Oc1ccccc1 (stereo not shown) [Compound 30, methyl 3-(butylamino)-5-[[(1-methyl-4-piperidyl)amino]sulfonimidoyl]-4-phenoxy-benzoate] | 30 to 50 | – |
| CCCCNc1cc(C(=O)OC)cc(S(=N)(=O)Nc2ncccn2)c1Oc1ccccc1 (stereo not shown) [Compound 31, methyl 3-(butylamino)-4-phenoxy-5-[(pyrimidin-2-ylamino)sulfonimidoyl]benzoate] | 10 to 30 | – |
| CCCCNc1cc(C(=O)OC)cc(S(=N)(=O)NCCc2ccccc2)c1Oc1ccccc1 (stereo not shown) [Compound 34, methyl 3-(butylamino)-4-phenoxy-5-[(2-phenylethylamino)sulfonimidoyl]benzoate] | 30 to 50 | – |
| CCCCNc1cc(C(=O)OC)cc(S(=N)(=O)NCCc2cccc(Cl)c2)c1Oc1ccccc1 (stereo not shown) [Compound 35, methyl 3-(butylamino)-5-[[2-(3-chlorophenyl)ethylamino]sulfonimidoyl]-4-phenoxy-benzoate] | 30 to 50 | – |
| CCCCNc1cc(C(=O)OC)cc(S(=N)(=O)NCc2cccnc2)c1Oc1ccccc1 (stereo not shown) [Compound 36, methyl 3-(butylamino)-4-phenoxy-5-[(3-pyridylmethylamino)sulfonimidoyl]benzoate] | 30 to 50 | – |
| CCCCNc1cc(C(=O)OC)cc(S(=N)(=O)NCCc2cccnc2)c1Oc1ccccc1 (stereo not shown) [Compound 37, methyl 3-(butylamino)-4-phenoxy-5-[[2-(3-pyridyl)ethylamino]sulfonimidoyl]benzoate] | 10 to 30 | – |
| CCCCNc1cc(C(=O)OC)cc(S(=N)(=O)NCc2nccs2)c1Oc1ccccc1 (stereo not shown) [Compound 38, methyl 3-(butylamino)-4-phenoxy-5-[(thiazol-2-ylmethylamino)sulfonimidoyl]benzoate] | 10 to 30 | – |
| CCCCNc1cc(C(=O)OC)cc(S(=N)(=O)NCCc2nccs2)c1Oc1ccccc1 (stereo not shown) [Compound 39, methyl 3-(butylamino)-4-phenoxy-5-[(2-thiazol-2-ylethylamino)sulfonimidoyl]benzoate] | 10 to 30 | – |
| CCCCNc1cc(C(=O)OC)cc(S(=N)(=O)Nc2nccn2C)c1Oc1ccccc1 (stereo not shown) [Compound 40, methyl 3-(butylamino)-5-[[(1-methylimidazol-2-yl)amino]sulfonimidoyl]-4-phenoxy-benzoate] | 30 to 50 | – |
| CCCCNc1cc(C(=O)OC)cc(S(=N)(=O)Nc2ccccn2)c1Oc1ccccc1 (stereo not shown) [Compound 41, methyl 3-(butylamino)-4-phenoxy-5-[(2-pyridylamino)sulfonimidoyl]benzoate] | 30 to 50 | – |
| CCCCNc1cc(C(=O)OC)cc(S(=N)(=O)NCc2ccn(C)n2)c1Oc1ccccc1 (stereo not shown) [Compound 42, methyl 3-(butylamino)-5-[[(1-methylpyrazol-3-yl)methylamino]sulfonimidoyl]-4-phenoxy-benzoate] | 10 to 30 | 10 to 30 |
| CCCCNc1cc(C(=O)OC)cc(S(=N)(=O)Nc2nccs2)c1Oc1ccccc1 (stereo not shown) [Compound 43, methyl 3-(butylamino)-4-phenoxy-5-[(thiazol-2-ylamino)sulfonimidoyl]benzoate] | 10 to 30 | 30 to 50 |
| CCCCNc1cc(C(=O)OC)cc(S(=N)(=O)Nc2ccncc2)c1Oc1ccccc1 (stereo not shown) [Compound 44, methyl 3-(butylamino)-4-phenoxy-5-[(4-pyridylamino)sulfonimidoyl]benzoate] | 10 to 30 | 30 to 50 |
| CCCCNc1cc(C(=O)OC)cc(S(=N)(=O)Nc2ccnnc2)c1Oc1ccccc1 (stereo not shown) [Compound 45, methyl 3-(butylamino)-4-phenoxy-5-[(pyridazin-4-ylamino)sulfonimidoyl]benzoate] | 30 to 50 | 30 to 50 |
| CCCCNc1cc(C(=O)OC)cc(S(=N)(=O)NCCCC)c1Oc1ccccc1 (stereo not shown) [Compound 46, methyl 3-(butylamino)-5-(butylaminosulfonimidoyl)-4-phenoxy-benzoate] | 30 to 50 | 30 to 50 |
| CCCCNc1cc(C(=O)OC)cc(S(=N)(=O)NC23CC(C2)C3)c1Oc1ccccc1 (stereo not shown) [Compound 47, methyl 3-[(1-bicyclo[1.1.1]pentanylamino)sulfonimidoyl]-5-(butylamino)-4-phenoxy-benzoate] | 30 to 50 | 30 to 50 |
| CCCCNc1cc(C(=O)OC)cc(S(=N)(=O)NC2CN3CCC2CC3)c1Oc1ccccc1 (stereo not shown) [Compound 48, methyl 3-(butylamino)-4-phenoxy-5-[(quinuclidin-3-ylamino)sulfonimidoyl]benzoate] | 50 to 75 | 30 to 50 |
